# Earlier results, collected in patent US6887863B2, “Hydrazide and alkoxyamide angiogenesis inhibitors” (Abbott Laboratories, priority 2000, dated 2005).
# Molecular target: type 2-methionine aminopeptidase (MetAP2) (Homo sapiens, UniProt P50579)
# Details: reported in Proc. Natl. Acad. Sci. USA 94: 6099-6103 (1997) and Chemistry and Biology 4(6): 461-471 (1997)
# Sequence of type 2-methionine aminopeptidase (MetAP2) (P50579 whole entry, species assumed): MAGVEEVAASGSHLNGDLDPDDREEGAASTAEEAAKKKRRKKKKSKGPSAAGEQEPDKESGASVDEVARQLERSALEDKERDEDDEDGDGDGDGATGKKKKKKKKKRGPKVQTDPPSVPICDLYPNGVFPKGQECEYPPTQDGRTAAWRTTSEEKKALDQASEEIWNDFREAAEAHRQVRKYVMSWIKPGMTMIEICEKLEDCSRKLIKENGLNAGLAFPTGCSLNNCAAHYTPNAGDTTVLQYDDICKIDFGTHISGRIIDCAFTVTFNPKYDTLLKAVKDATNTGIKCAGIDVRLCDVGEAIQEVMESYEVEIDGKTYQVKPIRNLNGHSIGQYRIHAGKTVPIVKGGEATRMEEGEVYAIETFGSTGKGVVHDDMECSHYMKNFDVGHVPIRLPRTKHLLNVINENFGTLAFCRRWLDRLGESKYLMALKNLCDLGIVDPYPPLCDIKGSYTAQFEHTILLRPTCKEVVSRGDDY
compound,measurement,value
CO[C@@H]1[C@H](OC(=O)NC(=O)CCl)CC[C@]2(CO2)[C@H]1[C@@]1(C)O[C@@H]1CC=C(C)C [AGM-1470],inactivation of MetAP2,covalently inactivate
